# From US12643882B2, “Inhibitors of human respiratory syncytial virus and metapneumovirus” (priority 2022, dated 2026)
# pEC50: −log10 of the molar value. Where two headings read alike, the source gives them in different places.
# What was measured:
# [1] = system: hMPV-GFP virus; experiment: microbe, parasite or virus in culture; assay type: cell-based, human metapneumovirus
# Outline: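 VERO cells infected with GFP-expressing hMPV at MOI 1.25 were incubated 48 h at 37 °C with compound in 10-point 3-fold dilutions (typically 40,300–2 nM final). GFP-positive cells were counted by imaging. Same-well CellTiter-Glo gave cytotoxicity, and IC50/CC50 came from 4-parameter logistic fits.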
# [2] = system: RSV-A2-GFP virus; experiment: microbe, parasite or virus in culture; assay type: cell-based, Human Respiratory Syncytial Virus
# Outline: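 Assay-ready frozen Calu-1 cells at 20,000 cells/mL were infected with recombinant RSV-A2-GFP (MOI 1.2) in DMEM with 2% FBS. Cells were exposed to 10-point 3-fold compound dilutions for 96 h at 37° C. GFP-positive cells were counted by imaging, with same-well CellTiter-Glo for cytotoxicity, and IC50 and CC50 came from 4-parameter logistic fits.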
# [3] = VERO cells infected with hMPV-GFP, 48 hrs, GFP-expressing cells counted, read-out: hMPV EC50
# [4] = Calu-1 cells infected with RSV-A2-GFP, 96 hrs, GFP-expressing cells counted, read-out: RSV EC50
# [5] = human metapneumovirus, Vero, 48 h, read-out: hMPV EC50, VERO cells infected with hMPV-GFP, 48 hrs, GFP-expressing cells counted
# [6] = human respiratory syncytial virus, Calu-1, 96 h, read-out: RSV EC50, Calu-1 cells infected with RSV-A2-GFP, 96 hrs, GFP-expressing cells counted
Structure (SMILES),"pEC50 [1, 3]","pEC50 [2, 4]","pEC50 [1, 5]","pEC50 [2, 6]"
"Cc1nn(-c2ncccn2)cc1C(=O)N1C[C@@H]2[C@H](C1)[C@H]2Oc1cc(C(C)(C)N)cc(-c2cc(F)c(F)c(F)c2)n1 [Example 82, ((1R,5S,6s)-6-((4-(2-aminopropan-2-yl)-6-(3,4,5-trifluorophenyl)pyridin-2-yl)oxy)-3-azabicyclo[3.1.0]hexan-3-yl)(3-methyl-1-(pyrimidin-2-yl)-1H-pyrazol-4-yl)methanone]",7.00 to 8.00,> 8.00,–,–
"Cn1nc(-c2ncccn2)cc1C(=O)N1C[C@H]2[C@H](Oc3cc(C(C)(C)N)cc(-c4ccc(F)cc4)n3)[C@@]2(C)C1 (single isomer, unassigned; enantiomer 1) [Example 104A]",–,–,< 7.00,> 8.00
"CC(C)(N)c1cc(O[C@H]2[C@@H]3CN(C(=O)c4cc(-c5ncccn5)ns4)C[C@@H]32)nc(-c2ccc(F)cc2)c1 [Example 77, ((1R,5S,6s)-6-((4-(2-aminopropan-2-yl)-6-(4-fluorophenyl)pyridin-2-yl)oxy)-3-azabicyclo[3.1.0]hexan-3-yl)(3-(pyrimidin-2-yl)isothiazol-5-yl)methanone]",< 7.00,> 8.00,–,–
"CC(C)(N)c1cc(O[C@H]2[C@@H]3CN(C(=O)c4cn(-c5ncccn5)nc4N)C[C@@H]32)nc(-c2ccc(F)cc2)c1 [Example 70, (3-amino-1-(pyrimidin-2-yl)-1H-pyrazol-4-yl)((1R,5S,6s)-6-((4-(2-aminopropan-2-yl)-6-(4-fluorophenyl)pyridin-2-yl)oxy)-3-azabicyclo[3.1.0]hexan-3-yl)methanone]",< 7.00,> 8.00,–,–
"COc1nn(-c2ncccn2)cc1C(=O)N1C[C@@H]2[C@H](C1)[C@H]2Oc1cc(C(C)(C)N)cc(N2CCC(C)(C)CC2)n1 [Example 122, ((1R,5S,6s)-6-((4-(2-aminopropan-2-yl)-6-(4,4-dimethylpiperidin-1-yl)pyridin-2-yl)oxy)-3-azabicyclo[3.1.0]hexan-3-yl)(3-methoxy-1-(pyrimidin-2-yl)-1H-pyrazol-4-yl)methanone]",–,–,< 7.00,> 8.00
"COc1cc(F)ccc1-c1cc(C(C)(C)N)cc(O[C@H]2[C@@H]3CN(C(=O)c4sc(-c5ncccn5)nc4C)C[C@@H]32)n1 [Example 41, ((1R,5S,6s)-6-((4-(2-aminopropan-2-yl)-6-(4-fluoro-2-methoxyphenyl)pyridin-2-yl)oxy)-3-azabicyclo[3.1.0]hexan-3-yl)(4-methyl-2-(pyrimidin-2-yl)thiazol-5-yl)methanone]",< 7.00,> 8.00,–,–
"CC(C)(N)c1cc(O[C@H]2[C@@H]3CN(C(=O)c4cnn(-c5ncccn5)c4)C[C@@H]32)nc(-c2ccc(F)cc2)c1 [Example 63, ((1R,5S,6s)-6-((4-(2-aminopropan-2-yl)-6-(4-fluorophenyl)pyridin-2-yl)oxy)-3-azabicyclo[3.1.0]hexan-3-yl)(1-(pyrimidin-2-yl)-1H-pyrazol-4-yl)methanone]",< 7.00,> 8.00,–,–
"Cc1nn(-c2ncccn2)cc1C(=O)N1C[C@@H]2[C@H](C1)[C@H]2Oc1cc(C(C)(C)N)cc(N2CCC(C)(C)CC2C)n1 (stereo partly drawn) [Example 127A, ent-((1R,5S,6s)-6-((4-(2-aminopropan-2-yl)-6-(2,4,4-trimethylpiperidin-1-yl)pyridin-2-yl)oxy)-3-azabicyclo[3.1.0]hexan-3-yl)(3-methyl-1-(pyrimidin-2-yl)-1H-pyrazol-4-yl)methanone]",< 7.00,> 8.00,–,–
"CCOc1nn(-c2ncccn2)cc1C(=O)N1C[C@@H]2[C@H](C1)[C@H]2Oc1cc(C(C)(C)N)cc(-c2ccc(F)cc2)n1 [Example 68, ((1R,5S,6s)-6-((4-(2-aminopropan-2-yl)-6-(4-fluorophenyl)pyridin-2-yl)oxy)-3-azabicyclo[3.1.0]hexan-3-yl)(3-ethoxy-1-(pyrimidin-2-yl)-1H-pyrazol-4-yl)methanone]",< 7.00,> 8.00,–,–
"Cc1nc(-c2ncccn2)sc1C(=O)N1C[C@@H]2[C@H](C1)[C@H]2Oc1cc(-c2ccc(F)cc2)nc(C(C)(C)N)c1 [Example 114, ((1R,5S,6s)-6-((2-(2-aminopropan-2-yl)-6-(4-fluorophenyl)pyridin-4-yl)oxy)-3-azabicyclo[3.1.0]hexan-3-yl)(4-methyl-2-(pyrimidin-2-yl)thiazol-5-yl)methanone]",–,–,< 7.00,> 8.00
"Cc1nn(-c2ncccn2)cc1C(=O)N1C[C@@H]2[C@H](C1)[C@H]2Oc1cc(C(C)(C)N)cc(-c2cc3ccccc3[nH]2)n1 [Example 89, ((1R,5S,6s)-6-((4-(2-aminopropan-2-yl)-6-(1H-indol-2-yl)pyridin-2-yl)oxy)-3-azabicyclo[3.1.0]hexan-3-yl)(3-methyl-1-(pyrimidin-2-yl)-1H-pyrazol-4-yl)methanone]",< 7.00,> 8.00,–,–
"Cc1nn(-c2ncc(F)cn2)cc1C(=O)N1C[C@@H]2[C@H](C1)[C@H]2Oc1cc(C(C)(C)N)cc(-c2ccc(F)cc2)n1 [Example 71, ((1R,5S,6s)-6-((4-(2-aminopropan-2-yl)-6-(4-fluorophenyl)pyridin-2-yl)oxy)-3-azabicyclo[3.1.0]hexan-3-yl)(1-(5-fluoropyrimidin-2-yl)-3-methyl-1H-pyrazol-4-yl)methanone]",< 7.00,> 8.00,–,–
"Cc1nc(-c2ncccn2)sc1C(=O)N1C[C@@H]2[C@H](C1)[C@H]2Oc1cc(C(C)(C)N)cc(N2CCC(C)(C)CC2)n1 [Example 123, ((1R,5S,6s)-6-((4-(2-aminopropan-2-yl)-6-(4,4-dimethylpiperidin-1-yl)pyridin-2-yl)oxy)-3-azabicyclo[3.1.0]hexan-3-yl)(4-methyl-2-(pyrimidin-2-yl)thiazol-5-yl)methanone]",< 7.00,> 8.00,–,–
"CCC(C)(N)c1cc(OC2[C@H]3CN(C(=O)c4cn(-c5ncccn5)nc4C)C[C@@H]23)nc(-c2ccc(F)cc2)c1 (single isomer, unassigned; enantiomer 2) [Example 116B]",< 7.00,> 8.00,–,–
"Cc1nn(-c2ncccn2)cc1C(=O)N1C[C@H]2[C@H](Oc3cc(C(C)(C)N)cc(-c4ccc(F)cc4)n3)[C@@]2(C)C1 (single isomer, unassigned; enantiomer 1) [Example 107A]",–,–,< 7.00,> 8.00
"CC(C)(N)c1cc(O[C@H]2[C@@H]3CN(C(=O)c4cn(-c5ncccn5)nc4CC(F)F)C[C@@H]32)nc(-c2ccc(F)cc2)c1 [Example 132, ((1R,5S,6s)-6-((4-(2-aminopropan-2-yl)-6-(4-fluorophenyl)pyridin-2-yl)oxy)-3-azabicyclo[3.1.0]hexan-3-yl)(3-(2,2-difluoroethyl)-1-(pyrimidin-2-yl)-1H-pyrazol-4-yl)methanone]",–,–,< 7.00,> 8.00
"CCc1nn(-c2ncccn2)cc1C(=O)N1C[C@@H]2[C@H](C1)[C@H]2Oc1cc(C(C)(C)N)cc(-c2ccc(F)cc2)n1 [Example 64, ((1R,5S,6s)-6-((4-(2-aminopropan-2-yl)-6-(4-fluorophenyl)pyridin-2-yl)oxy)-3-azabicyclo[3.1.0]hexan-3-yl)(3-ethyl-1-(pyrimidin-2-yl)-1H-pyrazol-4-yl)methanone]",< 7.00,> 8.00,–,–
"Cc1nc(-c2ncccn2)sc1C(=O)N1C[C@@H]2[C@H](C1)[C@H]2Oc1cc(C(C)(C)N)cc(-c2cccc(F)c2)n1 [Example 16, ((1R,5S,6s)-6-((4-(2-aminopropan-2-yl)-6-(3-fluorophenyl)pyridin-2-yl)oxy)-3-azabicyclo[3.1.0]hexan-3-yl)(4-methyl-2-(pyrimidin-2-yl)thiazol-5-yl)methanone]",7.00 to 8.00,> 8.00,–,–
"Cc1nn(-c2ncccn2)cc1C(=O)N1C[C@@H]2[C@H](C1)[C@H]2Oc1cc(C(C)(C)N)cc(C2=CCC(C)(C)CC2)n1 [Example 90, ((1R,5S,6s)-6-((4-(2-aminopropan-2-yl)-6-(4,4-dimethylcyclohex-1-en-1-yl)pyridin-2-yl)oxy)-3-azabicyclo[3.1.0]hexan-3-yl)(3-methyl-1-(pyrimidin-2-yl)-1H-pyrazol-4-yl)methanone]",< 7.00,> 8.00,–,–
"Cc1nc(-c2ncccn2)oc1C(=O)N1C[C@@H]2[C@H](C1)[C@H]2Oc1cc(C(C)(C)N)cc(-c2ccc(F)cc2)n1 [Example 78, ((1R,5S,6s)-6-((4-(2-aminopropan-2-yl)-6-(4-fluorophenyl)pyridin-2-yl)oxy)-3-azabicyclo[3.1.0]hexan-3-yl)(4-methyl-2-(pyrimidin-2-yl)oxazol-5-yl)methanone]",–,–,< 7.00,7.00 to 8.00
"CC(C)(N)c1cc(O[C@@H]2C[C@@H]3[C@H]2CN3C(=O)c2cn(-c3ncccn3)nc2C2CC2)nc(-c2ccc(F)cc2)c1 (single isomer, unassigned; enantiomer 2) [Example 6]",–,–,< 7.00,> 8.00
"CC(C)(N)c1cc(O[C@H]2[C@@H]3CN(C(=O)c4cn(-c5ncccn5)nc4C4CC4)C[C@@H]32)nc(-c2ccc(F)cc2)c1 [Example 65, ((1R,5S,6s)-6-((4-(2-aminopropan-2-yl)-6-(4-fluorophenyl)pyridin-2-yl)oxy)-3-azabicyclo[3.1.0]hexan-3-yl)(3-cyclopropyl-1-(pyrimidin-2-yl)-1H-pyrazol-4-yl)methanone]",< 7.00,> 8.00,–,–
